Columns and labels:
[1] = biological target: T1, human-type PPAR α ligand-binding domain (Homo sapiens, UniProt Q07869); assay: Competition binding with [3H]KRP-297 to 6×His-hPPARα ligand-binding domain; settings: for Binding to the ligand-binding domain of PPARα: competition with 100 nM [3H]KRP-297, test concentration not given; for Binding to PPAR α ligand-binding domain, in words: competition with [3H]KRP-297
T1 construct: made in house; host or cells: Escherichia coli
T1 sequence (Q07869 239-466 limits assumed): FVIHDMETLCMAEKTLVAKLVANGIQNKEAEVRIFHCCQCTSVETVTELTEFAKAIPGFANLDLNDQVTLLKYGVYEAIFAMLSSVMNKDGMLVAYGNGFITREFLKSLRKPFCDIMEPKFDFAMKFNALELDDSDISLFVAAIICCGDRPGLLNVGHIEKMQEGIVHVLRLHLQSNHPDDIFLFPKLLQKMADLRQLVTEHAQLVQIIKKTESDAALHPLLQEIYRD
Text: (§1) Proteins (6×His-hPPARs LBD) tagged 6-copy histidine to the side of N-termini in the ligand-binding domains of human-type PPAR α and PPAR γ were expressed in Escherichia coli, respectively, and purified through a nickel column.

[2] = biological target: T2, human-type PPAR γ ligand-binding domain (Homo sapiens, UniProt P37231); assay: Competition binding with [3H]KRP-297 to 6×His-hPPARγ ligand-binding domain; settings: for Binding to the ligand-binding domain of PPARγ: competition with 100 nM [3H]KRP-297, test concentration not given; for Binding to PPAR γ ligand-binding domain, in words: competition with [3H]KRP-297
T2 construct: made in house; host or cells: Escherichia coli
T2 sequence (P37231 238-503 limits assumed): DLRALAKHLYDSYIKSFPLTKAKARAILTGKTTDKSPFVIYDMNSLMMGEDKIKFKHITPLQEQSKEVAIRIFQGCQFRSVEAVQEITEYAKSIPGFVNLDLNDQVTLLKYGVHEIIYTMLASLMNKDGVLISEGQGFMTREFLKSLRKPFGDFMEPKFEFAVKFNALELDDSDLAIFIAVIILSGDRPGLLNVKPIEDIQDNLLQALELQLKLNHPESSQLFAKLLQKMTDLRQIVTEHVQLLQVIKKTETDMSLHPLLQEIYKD
Text: as §1

[3] = biological target: T3, Human PPARα ligand-binding domain and SRC-1 (Homo sapiens, UniProt Q07869); assay: Conjugate formation between PPARα LBD and [35S]SRC-1; format: biochemical
T3 construct: made in house; host or cells: Escherichia coli (PPAR LBD); in vitro translation, TNT, Promega (SRC-1)
T3 sequence (Q07869 239-466 limits assumed): T1 sequence (Q07869 239-466 limits assumed)
Method: (§2) [35S]methionine-labeled form of SRC-1 containing 2-copy of LXXLL motif was prepared in vitro (TNTR, Promega Co., Madison, Wis.). 6×His-hPPARs LBD protein was incubated for 60 minutes at 4° C. in 50 mM Tris-HCl buffer (pH 7.4) containing 50 mM KCl and 1 mM dithiothreitol and 0.1% bovine serum albumin in the presence or absence of testing compound. Thereafter, […] of anti-6×His antibody (QIAGEN Co., Germany) were added and the mixture was incubated for 60 minutes at 4° C. Successively, […] of protein G Sepharose (Falmasia Biotech Co., Sweden) were added and the mixture was incubated for 60 minutes at 4° C. After washed thrice by centrifugation, protein G Sepharose was dissolved with […] of SDS-sample buffer, 20% SDS-PAGE, and then [35S]SRC-1 was detected by means of autography.

[4] = biological target: T4, Human PPARγ ligand-binding domain and SRC-1 (Homo sapiens, UniProt P37231); assay: Conjugate formation between PPARγ LBD and [35S]SRC-1; format: biochemical
T4 construct: made in house; host or cells: Escherichia coli (PPAR LBD); in vitro translation, TNT, Promega (SRC-1)
T4 sequence (P37231 238-503 limits assumed): T2 sequence (P37231 238-503 limits assumed)
Method: as §2

Compound | Binding to the ligand-binding domain of PPARα [1] | Binding to PPAR α ligand-binding domain, in words [1] | Binding to the ligand-binding domain of PPARγ [2] | Binding to PPAR γ ligand-binding domain, in words [2] | other results
CCCCC/C=C/C=C1/C(=O)C=C[C@@H]1C/C=C\CCCC(=O)O [15-Deoxy-Δ^12,14-prostaglandin J2, 15-deoxy-Δ^12,14-prostaglandin J2, reference compound] | – | – | 93% | – | –
CCCCC/C=C\C/C=C\C=C\[C@@H](O)C/C=C\CCCC(=O)O [8(S)-Hydroxyeicosatetraenoic acid, 8(S)-hydroxyeicosatetraenoic acid, reference compound] | 99% | – | – | – | –
CCCCC/C=C\C/C=C\C/C=C\C/C=C\CCCC(=O)SCCNC(=O)CCNC(=O)[C@H](O)C(C)(C)COP(=O)(O)OP(=O)(O)OC[C@H]1O[C@@H](n2cnc3c(N)ncnc32)[C@H](O)[C@@H]1OP(=O)(O)O [Arachidonoyl CoA] | 54% | ligand | 46% | ligand | –

Second part, led by results:

Binding to the ligand-binding domain of PPARα [1] | Binding to PPAR α ligand-binding domain, in words [1] | Binding to the ligand-binding domain of PPARγ [2] | Binding to PPAR γ ligand-binding domain, in words [2] | Compound | other results
95% | ligand | 52% | ligand | CCCCCCCC/C=C\CCCCCCCC(=O)SCCNC(=O)CCNC(=O)[C@H](O)C(C)(C)COP(=O)(O)OP(=O)(O)OC[C@H]1O[C@@H](n2cnc3c(N)ncnc32)[C@H](O)[C@@H]1OP(=O)(O)O [Oleoyl CoA] | –
83% | ligand | 72% | ligand | CCCCCCCCCCCCCCCC(=O)SCCNC(=O)CCNC(=O)[C@H](O)C(C)(C)COP(=O)(O)OP(=O)(O)OC[C@H]1O[C@@H](n2cnc3c(N)ncnc32)[C@H](O)[C@@H]1OP(=O)(O)O [Palmitoyl CoA] | –
70% | ligand | 45% | ligand | CCCCCCCCCCCCCC(=O)SCCNC(=O)CCNC(=O)[C@H](O)C(C)(C)COP(=O)(O)OP(=O)(O)OC[C@H]1O[C@@H](n2cnc3c(N)ncnc32)[C@H](O)[C@@H]1OP(=O)(O)O [Myristoyl CoA] | –
92% | ligand | 59% | ligand | CCCCC/C=C\C/C=C\CCCCCCCC(=O)SCCNC(=O)CCNC(=O)[C@H](O)C(C)(C)COP(=O)(O)OP(=O)(O)OC[C@H]1O[C@@H](n2cnc3c(N)ncnc32)[C@H](O)[C@@H]1OP(=O)(O)O [Linoleoyl CoA] | Conjugate formation between PPARα LBD and SRC-1 ([3]; KRP-297 30 μM, Linoleoyl CoA 3 μM (0 μM: 6.1 ± 1.7)): 5.5 ± 1.5; Conjugate formation between PPARα LBD and SRC-1 ([3]; KRP-297 30 μM, Linoleoyl CoA 10 μM (0 μM: 6.1 ± 1.7)): 4.4 ± 0.8; Conjugate formation between PPARα LBD and SRC-1 ([3]; KRP-297 30 μM, Linoleoyl CoA 30 μM (0 μM: 6.1 ± 1.7)): 1.4 ± 0.1; Conjugate formation between PPARα LBD and SRC-1 ([3]; KRP-297 30 μM, Linoleoyl CoA 100 μM (0 μM: 6.1 ± 1.7)): 0.9 ± 0.3; Inhibition of conjugate formation of SRC-1 with PPAR α, in words ([3]; conjugate formation due to ligands KRP-297 and linoleic acid): dose-dependently inhibited; Conjugate formation between PPARα LBD and SRC-1 ([3]; linoleic acid 30 μM, Linoleoyl CoA 3 μM (0 μM: 5.3 ± 1.9)): 6.1 ± 2.2; Conjugate formation between PPARα LBD and SRC-1 ([3]; linoleic acid 30 μM, Linoleoyl CoA 10 μM (0 μM: 5.3 ± 1.9)): 2.4 ± 0.8; Conjugate formation between PPARα LBD and SRC-1 ([3]; linoleic acid 30 μM, Linoleoyl CoA 30 μM (0 μM: 5.3 ± 1.9)): 1.2 ± 0.4; Conjugate formation between PPARα LBD and SRC-1 ([3]; linoleic acid 30 μM, Linoleoyl CoA 100 μM (0 μM: 5.3 ± 1.9)): 0.9 ± 0.3; Conjugate formation between PPARγ LBD and SRC-1 ([4]; BRL-49653 30 μM, Linoleoyl CoA 3 μM (0 μM: 4.8 ± 0.7)): 4.9 ± 0.6; Conjugate formation between PPARγ LBD and SRC-1 ([4]; BRL-49653 30 μM, Linoleoyl CoA 10 μM (0 μM: 4.8 ± 0.7)): 4.8 ± 1.9; Conjugate formation between PPARγ LBD and SRC-1 ([4]; BRL-49653 30 μM, Linoleoyl CoA 30 μM (0 μM: 4.8 ± 0.7)): 1.5 ± 0.5; Conjugate formation between PPARγ LBD and SRC-1 ([4]; BRL-49653 30 μM, Linoleoyl CoA 100 μM (0 μM: 4.8 ± 0.7)): 1.0 ± 0.1; Inhibition of conjugate formation of SRC-1 with PPAR γ, in words ([4]; conjugate formation due to ligands BRL-49,653 and linoleic acid): dose-dependently inhibited; Conjugate formation between PPARγ LBD and SRC-1 ([4]; linoleic acid 30 μM, Linoleoyl CoA 3 μM (0 μM: 4.5 ± 0.7)): 4.2 ± 0.3; Conjugate formation between PPARγ LBD and SRC-1 ([4]; linoleic acid 30 μM, Linoleoyl CoA 10 μM (0 μM: 4.5 ± 0.7)): 2.7 ± 1.1; Conjugate formation between PPARγ LBD and SRC-1 ([4]; linoleic acid 30 μM, Linoleoyl CoA 30 μM (0 μM: 4.5 ± 0.7)): 1.9 ± 0.8; Conjugate formation between PPARγ LBD and SRC-1 ([4]; linoleic acid 30 μM, Linoleoyl CoA 100 μM (0 μM: 4.5 ± 0.7)): 1.3 ± 0.4
94% | ligand | 89% | ligand | CCCCCCCCCCCCCCCCCC(=O)SCCNC(=O)CCNC(=O)[C@H](O)C(C)(C)COP(=O)(O)OP(=O)(O)OC[C@H]1O[C@@H](n2cnc3c(N)ncnc32)[C@H](O)[C@@H]1OP(=O)(O)O [Stearoyl CoA] | –

From patent US6762171B1, “Fatty acid CoA thioester inhibitory substance of PPARα and PPARγ” (Kyorin Pharmaceutical Co, Ltd., priority 2002, dated 2004)
